Literature values as cited in US20050084931A1, “Human prostaglandin DP receptor variants and methods of using same” (priority 2003, published 2005).
Like-named read-outs stand apart in the source and are kept apart here.

Biological target: T1, human DP receptor (Homo sapiens, UniProt Q13258)
T1 sequence (Q13258 1-359): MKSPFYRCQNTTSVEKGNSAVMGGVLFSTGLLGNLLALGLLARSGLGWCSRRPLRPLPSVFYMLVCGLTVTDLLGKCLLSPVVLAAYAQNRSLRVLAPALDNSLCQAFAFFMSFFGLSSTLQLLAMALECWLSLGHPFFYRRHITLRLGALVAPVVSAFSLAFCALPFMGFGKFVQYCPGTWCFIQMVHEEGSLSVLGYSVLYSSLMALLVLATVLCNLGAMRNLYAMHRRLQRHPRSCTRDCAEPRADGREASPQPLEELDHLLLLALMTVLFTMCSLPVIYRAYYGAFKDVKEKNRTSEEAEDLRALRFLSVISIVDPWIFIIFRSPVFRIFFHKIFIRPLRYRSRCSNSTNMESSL

In the case of `CCCCC[C@H](O)/C=C/[C@H]1C(=O)C[C@H](O)[C@@H]1C/C=C\CCCC(=O)O` [PGD2, Prostaglandin D2], the Kd (high-affinity site, read-out: high-affinity binding site) is given as 0.3 nM and the Kd (read-out: lower-affinity site) is given as ~13 nM.
